Measured values: patent US20090143400A1, “PURINE DERIVATIVES HAVING IMMUNO-MODULATING PROPERTIES” (priority 2005, published 2009)
≈ marks a conversion by molar mass, not a printed value.

Tests used:
human TLR7 = biological target: T1, human TLR7 (Homo sapiens, UniProt Q9NYK1); experiment: Human TLR7 assay (HEK293 SEAP reporter); assay type: cell-based; conditions: minimal effective concentration to induce SEAP release; HEK293 with recombinant human TLR7, overnight incubation at 37° C., 0.1% DMSO
T1 construct: expressed in transfected cells; host or cells: HEK293 cell line stably expressing the pNiFty2-SEAP reporter plasmid
T1 sequence (Q9NYK1 27-1049): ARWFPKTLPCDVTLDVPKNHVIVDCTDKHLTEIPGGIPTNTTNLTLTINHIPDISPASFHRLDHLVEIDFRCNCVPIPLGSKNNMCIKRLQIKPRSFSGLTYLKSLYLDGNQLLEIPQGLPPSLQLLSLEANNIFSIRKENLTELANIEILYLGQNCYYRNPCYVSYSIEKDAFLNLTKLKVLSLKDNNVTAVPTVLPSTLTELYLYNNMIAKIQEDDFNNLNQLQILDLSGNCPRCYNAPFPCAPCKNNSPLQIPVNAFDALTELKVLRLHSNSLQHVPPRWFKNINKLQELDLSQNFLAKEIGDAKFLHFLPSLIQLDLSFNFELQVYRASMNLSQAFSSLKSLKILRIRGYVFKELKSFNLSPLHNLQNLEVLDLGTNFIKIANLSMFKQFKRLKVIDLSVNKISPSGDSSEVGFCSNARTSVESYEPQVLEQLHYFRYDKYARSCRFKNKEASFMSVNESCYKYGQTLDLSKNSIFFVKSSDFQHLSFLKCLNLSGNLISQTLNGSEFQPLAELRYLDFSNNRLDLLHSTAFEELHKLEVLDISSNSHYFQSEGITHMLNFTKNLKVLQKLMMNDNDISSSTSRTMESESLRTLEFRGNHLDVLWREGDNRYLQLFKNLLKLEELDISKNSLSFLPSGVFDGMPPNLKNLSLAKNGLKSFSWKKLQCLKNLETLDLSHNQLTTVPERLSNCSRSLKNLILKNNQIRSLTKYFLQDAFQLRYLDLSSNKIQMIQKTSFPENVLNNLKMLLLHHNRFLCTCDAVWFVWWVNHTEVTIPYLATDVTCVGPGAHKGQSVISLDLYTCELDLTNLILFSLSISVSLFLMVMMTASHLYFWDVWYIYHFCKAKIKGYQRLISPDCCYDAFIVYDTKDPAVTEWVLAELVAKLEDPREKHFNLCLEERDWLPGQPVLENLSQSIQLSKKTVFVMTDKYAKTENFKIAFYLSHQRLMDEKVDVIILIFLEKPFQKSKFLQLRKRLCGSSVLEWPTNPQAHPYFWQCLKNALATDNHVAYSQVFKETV
Excerpt: Recombinant human TLR7 was stably expressed in a HEK293 cell line already stably expressing the pNiFty2-SEAP reporter plasmid; integration of the reporter gene was maintained by selection with the antibiotic zeocin. The most common variant sequence of human TLR7 (represented by the EMBL sequence AF240467) was cloned into the mammalian cell expression vector pUNO and transfected into this reporter cell-line. Transfectants with stable expression were selected using the antibiotic blasticidin. In this reporter cell-line, expression of secreted alkaline phosphatase (SEAP) is controlled by an NFkB/ELAM-1 composite promoter comprising five NFkB sites combined with the proximal ELAM-1 promoter. TLR signaling leads to the translocation of NFkB and activation of the promoter results in expression of the SEAP gene. TLR7-specific activation was assessed by determining the level of SEAP produced following overnight incubation of the cells at 37° C. with the standard compound in the presence of 0.1% (v/v) dimethylsulfoxide (DMSO). Concentration dependent induction of SEAP production by compounds was expressed as the minimal effective concentration of compound to induce SEAP release (pMEC).

rat spleen cells = assay type: cell-based
Solubility testing = assay type: physicochemical; conditions: aqueous buffer, thermodynamic from solid; 0.1 M phosphate buffer, shaken overnight at 20° C., HPLC/UV; Examples of the invention
Description: Saturated solutions for determining the solubility were prepared by placing about 0.3-3.0 ml of 0.1 M phosphare buffer in glass screw-top sample tubes along with some of the test compound. The tubes were then shaken overnight at constant temperature (20° C.). After shaking, undissolved material should be present in the solution, and more test compound should be added and shaking continued if this is not the case. The samples were then transferred to a centrifuge tube and centrifuged using a Heraeus Biofuge Fresco centrifuge at 13000 rpm for 30 minutes. The supernatant was then removed, placed in a new centrifuge tube and centrifuged again for 30 minutes at 13000 rpm. The undissolved material formed a pellet at the bottom of the tube and the liquid above the pellet was removed and was ready for assaying. The solution was then analysed using HPLC with UV quantification. A standard was also prepared by accurately weighing a sample of the test compound and dissolving it in a suitable volume of a solvent that will dissolve it completely (typically, DMSO, ethanol or methanol). This sample was then analysed by HPLC/UV.
The solubility was calculated from the observed peak areas in the HPLC/UV chromatograms along with corrections for any dilutions of the sample and differences in injection volumes. The following equation was used: […]

SMILES	pMEC (human TLR7)	Log MEC (rat spleen cells)	solubility (Solubility testing) [µg/mL]
CCCCOc1nc(N)c2[nH]c(=O)n(CCCN(CCCN3CCN(C)CC3)Cc3cccc(CC(=O)OC)c3)c2n1 [Example 3, Methyl [3-({[3-(6-amino-2-butoxy-8-oxo-7,8-dihydro-9H-purin-9-yl)propyl][3-(4-methylpiperazin-1-yl)propyl]amino}methyl)phenyl]acetate]	7.7	9.5	850 (≈ 1460 µM)
CCCCOc1nc(N)c2[nH]c(=O)n(CCCN(CCCNC)Cc3cccc(CC(=O)OC)c3)c2n1 [Example 5, Methyl [3-({[3-(6-amino-2-butoxy-8-oxo-7,8-dihydro-9H-purin-9-yl)propyl][3-(methylamino)propyl]amino}methyl)phenyl]acetate]	7.2	9.5	1820 (≈ 3540 µM)
CCCCOc1nc(N)c2[nH]c(=O)n(CCCCN(CCCN3CCN(C)CC3)Cc3cccc(CC(=O)OC)c3)c2n1 [Example 6, Methyl [3-({[4-(6-amino-2-butoxy-8-oxo-7,8-dihydro-9H-purin-9-yl)butyl][3-(4-methylpiperazin-1-yl)propyl]amino}methyl)phenyl]acetate]	–	9.0	1210 (≈ 2030 µM)
CCCCOc1nc(N)c2[nH]c(=O)n(CCCN(CCN(C)C)Cc3cccc(CC(=O)OC)c3)c2n1 [Example 4, Methyl [3-({[3-(6-amino-2-butoxy-8-oxo-7,8-dihydro-9H-purin-9-yl)propyl][2-(dimethylamino)ethyl]amino}methyl)phenyl]acetate]	–	9.5	830 (≈ 1620 µM)
CCCCOc1nc(N)c2[nH]c(=O)n(CCCN(CCCN(C)C)Cc3cccc(CC(=O)OC)c3)c2n1 [Example 1, Methyl [3-({[3-(6-amino-2-butoxy-8-oxo-7,8-dihydro-9H-purin-9-yl)propyl][3-(dimethylamino)propyl]amino}methyl)phenyl]acetate]	–	9.5	980 (≈ 1860 µM)
CCCCOc1nc(N)c2[nH]c(=O)n(CCCN(CCCN3CCCC3)Cc3cccc(CC(=O)OC)c3)c2n1 [Example 2, Methyl (3-{[[3-(6-amino-2-butoxy-8-oxo-7,8-dihydro-9H-purin-9-yl)propyl](3-pyrrolidin-1-ylpropyl)amino]methyl}phenyl)acetate]	7.4	9.5	1940 (≈ 3500 µM)
